Results on 1 compound are retold here after article PMC6010047, “Design, synthesis and biological evaluation of novel hydroxy-phenyl-1H-benzimidazoles as radical scavengers and UV-protective agents” (Journal of Enzyme Inhibition and Medicinal Chemistry, 2017).

The nature of data set [1]: Cytotoxicity, MTT test, 72 h. The conditions noted are these: human, NCTC-2544 keratinocytes (immortalized, nontumorigenic). (In general: Tetrazolium dyes change colour on reduction, which living cells bring about.)
Description: (§1) An immortalized, nontumorigenic cell line of human keratinocytes (NCTC-2544) was grown in a DMEM medium (Sigma-Aldrich Milan, Italy), supplemented with 115 units/mL of penicillin G, 115 μg/mL streptomycin, and 10% fetal calf serum (Invitrogen, Milan, Italy). Individual wells of a 96-well tissue culture microtiter plates (Falcon, Becton–Dickinson) were inoculated with 100 μL of complete medium containing 5 × 10^3 NCTC-2544. The plates were incubated at 37 °C in a humidified (5% CO2) incubator for 18 h prior to the experiments.
After medium removal, 100 μL of the drug solution, dissolved in DMSO and diluted in DMEM medium, was added to each well, incubated at 37 °C for 72 h. Final DMSO concentration never exceeded 0.5%. Cell viability was assayed by the MTT (3–(4,5-dimethylthiazol-2-yl)-2,5 diphenyl tetrazolium bromide) test as previously described by Mosmann[27].
The tests were conducted using a specific cell line of human keratinocytes (NCTC-2544). To assess cell viability, in the presence of the study compounds, before and after the irradiation, the MTT assay was performed[27]. The cytotoxicity was checked after 72 h from the incubation of the keratinocytes with compounds; moreover, the same experiments were performed in the presence of the parent PBSA.
The test system of the next data set is NCTC-2544 cells. The experiment in a line: Phototoxicity / cellular photoprotection, UVA or UVB irradiation, MTT test. The conditions noted are these: Homo sapiens, NCTC-2544, light or radiation study, 48 h.
The nature of data set [2]: UV spectra: λmax and molar extinction coefficient. It counts as physicochemical. As for the experimental part:
Sun protection factor (SPF) is related to the UV absorption of the substances, so before including the molecules in cosmetic formulations we evaluated the wavelength of maximum absorption (λmax) and the molar extinction coefficient (ɛ) of each molecule in aqueous solution at pH 7. The UV spectra were recorded between 270 and 420 nm (20 nm higher and lower then UVA and UVB range) to verify the spectrum profile of the molecules within UVA and UVB region. UV spectrum of PBSA is an UVB filter and presents a λmax of 302 nm; after this peak, the absorbance fades going to higher wavelength until almost zero around 325 nm, and then, it provides no absorption in the UVA region. Molecules spectra overlapped for category according to the substituent in position 5 of the benzimidazole ring are shown in Figures 1, 2 and 3; PBSA spectrum is presented in all figures for comparison.
From the spectra appears that the lambda maxima (Table 2) of the new molecules shifted toward higher wavelength and in general the range of absorption curve was wider than PBSA. Within a group of molecules, the batochromic shift was more marked for the molecules that have a hydroxyl moiety in position 2 of the phenyl ring (4, 5, 6, 9, 10, 11, 13 and […]); the effect of ortho substituted is known to produce this shift toward higher wavelength. Increasing the number of auxochrome groups on phenyl ring an increment in the absorption range occurred, compounds with three hydroxyl on the phenyl ring (6, 11, 15) had the broadest spectrum and their lambda maxima shifted at the highest wavelength compared to the other compounds. The absorption spectrum of molecules with the same number and position of hydroxyl seemed only slightly influenced by the substituent in position 5 of the benzimidazole ring. After having established the lambda maxima for every compound, solutions at different concentrations were prepared to calculate the molar extinction coefficient by means of linear regression and applying Lambert–Beer equation (Table 2).

Data set [3] can be described thus: Ferric reducing antioxidant of potency (FRAP) assay. The conditions noted are these: Trolox equivalents; mean ± SE of three experiments. It counts as biochemical. As for the experimental part: The ferric reducing ability of each standard solution was measured according to a modified protocol described by Guihua et al.[26]. The reagent for analysis was freshly prepared by mixing the following solutions in the reported ratio 10/1/1 (v:v:v) (i) 0.1 M acetate buffer pH 3.6, (ii) TPTZ (2,4,6-Tri(2-pyridyl)-s-triazine) 10 mmol/L in 40 mmol/HCl, (iii) ferric chloride 20 mmol/L. To a 1.9 mL of reagent were added 0.1 mL of sample proper diluted or solvent when blank was performed. Readings at fixed wavelength of the absorption maximum (593 nm) were done after 30 min, using a UV-VIS spectrophotometer; it was evaluated the absorbance increase of sample solution against the absorbance of blank reaction as parameter to calculate the antioxidant activity. The antioxidant activity is given as Trolox activity since this standard was used to perform the calibration curves.

A short description of data set [4]: 1,1-Diphenyl-2-picryl-hydrazyl radical (DPPH) assay. Type of data set: biochemical. The conditions noted are these: Trolox equivalents; mean ± SE of three experiments. As for the experimental part: To 1.5 mL DPPH methanolic solution (0.5 mM) was added 0.750 mL of sample solution proper diluted. Samples absorbance measurements were evaluated with a UV-VIS spectrophotometer (Thermo Spectronic Helios γ, Cambridge, UK) at fixed wavelength of 517 nm. Blank sample was prepared adding methanol to DPPH solution and Trolox was used as standard reference to achieve a calibration curve. The radical-scavenging activity is expressed as inhibition ratio of initial concentration of DPPH radical and is calculated according to the formula: Inhibition percentage (Ip) = [(AB-As)/AB]·100; where AB and As are, respectively, the absorbance values of blank reaction and of the tested sample[25].
(The DPPH test is a chemical assay of radical scavenging.)

The structures appear in SMILES notation. Read-outs that look alike come from different tables or passages of the source.

Description for NCTC-2544 cells: as §1
Two HPW 125 Philips lamps, mainly emitting at 365 nm, were used for UVA irradiation experiments. The spectral irradiance of the source was 4.0 mWcm^−^2 as measured at the sample level by a Cole-Parmer Instrument Company radiometer (Niles, IL) equipped with a 365-CX sensor. One or two PL-S 9 W/12 Philips lamps (280–370 nm; peak at 315 nm) were used for UVB irradiation experiments. To restrict the incident radiation to the range 305–370 nm, a glass filter (Schott SWG-305) was used. Total energy was detected by the same equipped with a sensor (model CX-312).
After medium removal, 100 μL of the drug solution, dissolved in DMSO and diluted with Hank’s Balanced Salt Solution (HBSS pH =7.2), was added to each well, incubated at 37 °C for 30 min, and then irradiated (20 J/cm^2 for UVA and 0.5 and 1 J/cm^2 for UVB). After irradiation, the solution was replaced with the medium and the plates were further incubated for 48 h. Cell viability was assayed by the MTT [(3–(4,5-dimethylthiazol-2-yl)-2,5 diphenyl tetrazolium bromide)] test as previously described by Mosmann[27].
Molecules were verified for their photocytotoxicity in the same cell line; the cells were treated with 50 μM solutions of compound and after 30 min were irradiated with 20 J/cm^2 UVA or with UVB at two energy amounts: 0.5 J/cm^2 and 1 J/cm^2 UVB. […] After irradiation, the solution was replaced with growth medium and the cells were further incubated for 48 h, and then, cell viability was assessed by MTT assay. […] The phototoxicity of tested molecules was compared with the ratio of cell survival of irradiated keratinocytes without substance (IC = irradiated control).

In the case of `Oc1ccc(-c2nc3ccccc3[nH]2)cc1` [Compound 7, 2-(4-Hydroxy-phenyl)-1H-benzimidazole], half-maximal inhibition in data set [1] (IC50 at 72 h) was put at 26.1 ± 2.4 µM. In addition, the viability at 20 µM with NCTC-2544 cells (read-out: % Cell survival UVA 20 J/cm^2) was 72.8 ± 2.9%; with NCTC-2544 cells (read-out: % Cell survival UVB 0.5 J/cm^2) it was 74.2 ± 1.3%; with NCTC-2544 cells (read-out: % Cell survival UVB 1 J/cm^2), 44 ± 4.1%. The λ max in data set [2] (aqueous solution at pH 7) was 306 nm. Besides, the “ɛ (molar extinction coefficient)” value in data set [2] (aqueous solution at pH 7, at λ max, linear regression Lambert–Beer) is listed as 24 000. Moreover, the FRAP in data set [3] worked out at 21.94 ± 0.12 μmolTrolox/mmol. Further, in data set [4], the DPPH was determined as 1.67 ± 0.08 μmolTrolox/mmol.
